Source: US20110045101A1, “FUNGICIDAL SUBSTITUTED AZOLES” (E.I. Du Pont De Nemours and Company, priority 2009, published 2011)
Marks after values point to notes of the source that are not given here.

Experiments:
Assay type in all cases: in vivo
Settings in all cases: 100 = 100% disease control
[1] = test system: Puccinia recondita f. sp. tritici; experiment: Test H: wheat leaf rust, test suspension sprayed after inoculation of wheat seedlings, visual disease rating
Summary of the method: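 Wheat seedlings inoculated with P. recondita spores, held 24 h saturated at 20 °C, then 2 days in growth chamber at 20 °C; compound suspension (acetone/water with Trem 014) sprayed to run-off afterwards. Rated visually; 200 ppm (≈500 g/ha) unless marked *, which denotes 40 ppm.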

[2] = test system: Erysiphe graminis f. sp. tritici; experiment: Test J: wheat powdery mildew on wheat seedlings, sprayed the day before inoculation, visual disease rating
Summary of the method: (§1)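 Test rate was 200 ppm, sprayed to run-off and equal to 500 g/ha, or 40 ppm where marked. The compound was first taken up in acetone at 3% of final volume and suspended in acetone/purified water (50/50) containing 250 ppm Trem® 014.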

Septoria nodorum = experiment: Test F: wheat glume blotch on wheat seedlings, sprayed the day before inoculation, visual disease rating
Summary of the method: as §1

Septoria tritici = experiment: Test G: wheat leaf blotch on wheat seedlings, sprayed the day before inoculation, visual disease rating
Summary of the method: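 Compounds dissolved in acetone (3% of final volume), then suspended in 50/50 acetone/water with 250 ppm Trem® 014 and sprayed to run-off on seedlings at 200 ppm (≈500 g/ha) or 40 ppm where marked. Inoculation with spores followed next day; visual rating after 48 h saturated at 24° C plus 19 days at 20° C.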

Botrytis cinerea = experiment: Test C: tomato Botrytis on tomato seedlings, sprayed the day before inoculation, visual disease rating
Summary of the method: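 Each compound is first taken up in acetone at 3% of the final volume and then brought to the desired ppm in a 50:50 acetone–water mix with 250 ppm surfactant (polyhydric alcohol esters). Tomato seedlings receive the suspension to run-off, normally at 200 ppm, occasionally 40 ppm.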

[3] = test system: Puccinia recondita f. sp. tritici; experiment: Test I: wheat leaf rust on wheat seedlings, sprayed the day before inoculation, visual disease rating
Summary of the method: as §1

Alternaria solani = experiment: Test D: tomato early blight, sprayed the day before inoculation, visual disease rating
Summary of the method: as §1

[4] = 200 ppm, 0 = no control relative to controls

Structure (SMILES)	Test H disease control rating [1, 4] [%]	Test J disease control rating [2, 4] [%]	Test F disease control rating (Septoria nodorum; [4]) [%]	Test G disease control rating (Septoria tritici; [4]) [%]	Test C disease control rating (Botrytis cinerea; [4]) [%]	Test I disease control rating [3, 4] [%]	Test D disease control rating (Alternaria solani; [4]) [%]	Test H disease control rating ([1]; 40 ppm (marked *))	Test J disease control rating ([2]; 40 ppm (marked *))	Test F disease control rating (Septoria nodorum; 40 ppm (marked *))	Test G disease control rating (Septoria tritici; 40 ppm (marked *))	Test C disease control rating (Botrytis cinerea; 40 ppm (marked *))	Test I disease control rating ([3]; 40 ppm (marked *))	Test D disease control rating (Alternaria solani; 40 ppm (marked *))
Fc1cc(F)c(-c2c(Cl)nc(Cl)n2-c2ccc(OC(F)(F)F)cc2)c(F)c1 [compound 600]	7	99	0	94	86	0	100	–	–	–	–	–	–	–
COc1cc(F)c(-c2c(Cl)nc(C)n2-c2ccc(C)c(Cl)c2)c(F)c1 [compound 601]	–	–	–	–	–	–	–	7* %	97* %	87* %	99* %	99* %	97* %	98* %
Cc1nc(Br)c(-c2c(F)cccc2F)n1-c1ccc2c(c1)OCCO2 [compound 602]	–	–	–	–	–	–	–	0* %	81* %	0* %	99* %	99* %	98* %	91* %
Fc1cc(F)c(-c2c(Cl)nc(Br)n2-c2cccc(OC(F)F)c2)c(F)c1 [compound 603]	98	100	99	99	99	100	100	–	–	–	–	–	–	–
Fc1cc(F)c(-c2c(Cl)nc(Br)n2-c2ccc(OC(F)F)cc2)c(F)c1 [compound 604]	97	100	100	99	99	100	100	–	–	–	–	–	–	–
Fc1cc(F)c(-c2c(Cl)nc(Br)n2-c2cccc(OC(F)(F)F)c2)c(F)c1 [compound 605]	0	94	0	73	19	0	0	–	–	–	–	–	–	–
Fc1cc(F)c(-c2c(Cl)nc(Br)n2-c2ccc(OC(F)(F)F)cc2)c(F)c1 [compound 606]	0	100	0	99	99	28	100	–	–	–	–	–	–	–
COc1cc(F)c(-c2c(Cl)nc(Br)n2-c2ccc(C)c(C#N)c2)c(F)c1 [compound 607]	–	–	–	–	–	–	–	7* %	82* %	31* %	99* %	100* %	86* %	96* %
Cc1nc(Cl)c(-c2c(F)cccc2F)n1-c1ccc2c(c1)OC(F)(F)O2 [compound 608]	–	–	–	–	–	–	–	7* %	0* %	0* %	4* %	17* %	41* %	0* %
Cc1nc(Cl)c(-c2c(F)cc(F)cc2F)n1-c1cccc(OC(F)F)c1 [compound 609]	100	100	100	99	99	100	100	–	–	–	–	–	–	–
Cc1nc(Cl)c(-c2c(F)cc(F)cc2F)n1-c1ccc(OC(F)F)cc1 [compound 610]	100	100	99	99	99	100	100	–	–	–	–	–	–	–
Cc1nc(Cl)c(-c2c(F)cc(F)cc2F)n1-c1cccc(OC(F)(F)F)c1 [compound 611]	0	57	0	81	91	16	66	–	–	–	–	–	–	–
Cc1nc(Cl)c(-c2c(F)cc(F)cc2F)n1-c1ccc(OC(F)(F)F)cc1 [compound 612]	0	100	60	96	99	8	100	–	–	–	–	–	–	–
COc1cc(F)c(-c2c(Cl)nc(C)n2-c2ccc(C)c(C#N)c2)c(F)c1 [compound 613]	–	–	–	–	–	–	–	15* %	21* %	64* %	99* %	99* %	97* %	100* %
COC(=O)c1ccc(-n2cnc(Cl)c2-c2c(F)cccc2F)cc1 [compound 614]	–	–	–	–	–	–	–	0* %	0* %	0* %	92* %	89* %	28* %	0* %
COc1ccc(F)c(-c2c(Cl)nc(C)n2-c2ccc(C#N)cc2)c1F [compound 615]	0	100	0	100	100	99	100	–	–	–	–	–	–	–
COc1ncccc1-n1c(Cl)nc(Cl)c1-c1c(F)cccc1F [compound 616]	0	99	0	99	100	98	0	–	–	–	–	–	–	–
Fc1cccc(F)c1-c1c(Cl)nc(Cl)n1-c1cccnc1Cl [compound 617]	100	99	0	100	99	100	99	–	–	–	–	–	–	–
Fc1cccc(F)c1-c1c(Br)nc(Br)n1-c1cccnc1Cl [compound 618]	99	97	0	98	98	99	85	–	–	–	–	–	–	–
COc1nc(Cl)ccc1-n1c(Cl)nc(Cl)c1-c1c(F)cccc1F [compound 619]	51	99	0	96	99	98	53	–	–	–	–	–	–	–
COc1ccc(-n2c(Cl)nc(Cl)c2-c2c(F)cccc2F)c(Cl)n1 [compound 620]	100	99	90	98	100	100	99	–	–	–	–	–	–	–
COc1ccc(-n2c(Cl)nc(Cl)c2-c2c(F)cccc2F)cn1 [compound 621]	100	100	99	98	100	100	100	–	–	–	–	–	–	–
COc1ccc(-n2c(Br)nc(Br)c2-c2c(F)cccc2F)cn1 [compound 622]	100	100	99	99	100	100	100	–	–	–	–	–	–	–
Fc1cccc(-n2cnc(Cl)c2-c2c(F)ccc(Br)c2F)c1 [compound 623]	0	100	0	97	98	98	33	–	–	–	–	–	–	–
COc1cc(F)c(-c2c(Cl)nnn2-c2ccc(Cl)cc2)c(F)c1 [compound 626]	17	97	0	100	99	79	99	–	–	–	–	–	–	–
